Measured values: US20250135026A1, “Antibody Drug Conjugates” (BeiGene Switzerland GmbH, priority 2021, published 2025)
Read-outs that look alike come from different tables or passages of the source.

Columns and labels:
in vitro = conditions: PAMPA
Calu-6 = assay: Compounds cellular killing (Cell Titer-Glo, 6 days, 2D); assay type: cell-based; conditions: for EC50 / Emax: Homo sapiens; for Emax: read-out: Emax
Procedure: (§1) The cell line was grown in a humidified 5% CO2 atmosphere at 37° C., and was regularly tested for the presence of mycoplasma with MycoAlert™ PLUS Mycoplasma Detection Kit (Lonza, LT07-710).
(§2) Incubation at 37° C., 5% CO2, overnight.
(§3) Adding the fresh growth-medium containing the varying concentrations of compounds, 50 ul/well.
(§4) Incubation at 37° C., 5% CO2, 6 days.
(§5) The cell viability detected by Cell Titer-Glo (Promega, G7573). Add 70 µL/well of CellTiter-Glo® Reagent in each well.
(§6) Allow the plates to incubate at room temperature for 10 minutes to stabilize luminescent signal.
(§7) Analyze with Microplate Reader.

A375 = assay: as above; assay type: cell-based, human; conditions: for cell-killing activity compared with Dxd: A375; for EC50 / Emax: Homo sapiens; for Emax: read-out: Emax
Procedure: as §1, §2, §3, §4, §5, §6, §7

HCC1569 = assay: Payload cellular killing, 2D; assay type: cell-based; conditions: Homo sapiens, HCC1569, 2D (HER3 +++); for Emax: read-out: Emax
PAMPA = conditions: free payload
MDA-MB-453 = assay: Payload cellular killing, 2D; assay type: cell-based, human; conditions: Homo sapiens, MDA-MB-453, 2D (HER3 +++); for Emax: read-out: Emax
Procedure: as §1

cathepsin B = cathepsin B (Homo sapiens, UniProt P07858); assay: Cathepsin B mediated rhodamine release; assay type: biochemical; conditions: 150 nM, 0.3 unit activated cathepsin B, pH 5.5, 37° C., FIG. 21
Procedure: CTSB was activated by incubation at ambient temperature for 15 min with 30 mM dithiothreitol and 15 mM EDTA at PH5.5.
Reaction buffer preparation: 25 mM sodium acetate & 1 mM EDTA, PH5.5.
Adding 150 nM NAcCys-13 & NAcCys-14 & NAcCys-15 & NAcCys-16 & NAcCys-17 and 0.3 unit activated cathepsin B mixture according to the experiment template.
The reaction mixtures were incubated at 37° C. immediately in the reader, then start reading using the kinetic set-up described. (TECAN SPARK: excitation/emission: 485/520 nm) (120 cycles, every one min) Gain Manual: 77%
Data analysis by GraphPad Prism 9 is illustrated in FIG. 21.

Ovcar3 (PTK7 high) = assay: Cellular killing on PTK7 cell lines (Cell-Titer-Glo, 7 days); assay type: cell-based; conditions: Anti-proliferation
Procedure: (§8) The plates were incubated for 7 days at 37° C., 5% CO2. Next, 50 μL of Cell-Titer-Glo reagent was added to each well. The mixture was mixed on an orbital shaker for 10 mins to allow cell lysis. Then, the luminescent signal was measured using BMG PheraStar with the luminescent protocol. The inhibition of Ovcar3 and A549 cell lines is illustrated in FIG. 22 and FIG. 23, respectively.

A549 (PTK7 low) = assay: as above; assay type: cell-based; conditions: Anti-proliferation
Procedure: as §8

[1] = ADC hydrophobicity evaluation by HIC (retention time of DAR8 species); assay type: physicochemical; conditions: HIC method with isopropanol in the mobile phase (values marked *, Method 1)
From the text: ADC Hydrophobicity Evaluation
ADC with more hydrophobic property would appeared with later retention time from HIC (hydrophobicity interaction column) chromatography. In this invention, […].
The HIC retention time (HIC RT, here only HIC RT of DAR8 species is listed in the table) can be seen as a measure to evaluate ADC's hydrophobicity.

[2] = Calu-6, Table 27, free payload, Calu-6, 2D (HER3 neg.)
[3] = Calu-6, […], Table 29, payload, Clau6, 6d, 2D (Her3 neg)
[4] = Calu-6, Table 29, payload, Clau6, 6d, 2D (Her3 neg)
[5] = A-375, Table 27, free payload, A375, 2D (Her3 ++)
[6] = A-375, […], Table 29, payload, A375, 6d, 2D (Her3++)
[7] = A-375, Table 29, payload, A375, 6d, 2D (Her3++)
[8] = Calu-6, Table 28, payload, Calu-6, 2D (HER3 neg.)
[9] = A-375, Table 28, payload, A375, 2D (Her3 ++)

CC[C@@]1(O)C(=O)OCc2c1cc1n(c2=O)Cc2c-1nc1cc(F)c(C)c3c1c2[C@@H](NC(=O)C(C)(C)CO)CC3 [Compound 66, N-((1S,9S)-9-ethyl-5-fluoro-9-hydroxy-4-methyl-10,13-dioxo-2,3,9,10,13,15-hexahydro-1H,12H-benzo[de]pyrano[3′,4′:6,7]indolizino[1,2-b]quinolin-1-yl)-3-hydroxy-2,2-dimethylpropanamide]
recovery (in vitro): 79.7% | cell-killing activity compared with Dxd (Calu-6; Calu-6): stronger cell-killing activity than Dxd | EC50 (Calu-6; Calu-6, Table 21, Calu-6): 0.3 nM | EC50 (Calu-6; [2]): 0.3 nM | EC50 (Calu-6; [3]): 0.3 nM | Emax (Calu-6; [4]): 97.3% | Emax (Calu-6; Table 21, Calu-6): 97.3% | cell-killing activity compared with Dxd (A375): stronger cell-killing activity than Dxd | EC50 (A375; [5]): 1.1 nM | EC50 (A375; [6]): 1.1 nM | EC50 (A375; A-375, Table 21, A375): 1.1 nM | Emax (A375; A-375, Table 21, A375): 99.9% | Emax (A375; [7]): 99.9% | PAMPA -Log Pe: 5.89

CC[C@@]1(O)C(=O)OCc2c1cc1n(c2=O)Cc2c-1nc1cc(F)c(C)c3c1c2[C@@H](NC(=O)CCO)CC3 [Compound 72]
recovery (in vitro): 48.1% | cell-killing activity compared with Dxd (Calu-6; Calu-6): less potent than Dxd | EC50 (Calu-6; Calu-6, Table 21, Calu-6): 2 nM | EC50 (Calu-6; [2]): 2 nM | EC50 (Calu-6; [3]): 2 nM | Emax (Calu-6; [4]): 98.3% | Emax (Calu-6; Table 21, Calu-6): 98.3% | cell-killing activity compared with Dxd (A375): less potent than Dxd | EC50 (A375; [5]): 4.4 nM | EC50 (A375; [6]): 4.4 nM | EC50 (A375; A-375, Table 21, A375): 4.4 nM | Emax (A375; A-375, Table 21, A375): 99.9% | Emax (A375; [7]): 99.9% | PAMPA -Log Pe: 6.02

CC[C@@]1(O)C(=O)OCc2c1cc1n(c2=O)Cc2c-1nc1cc(F)c(C)c3c1c2[C@@H](NC(=O)CO)CC3 [DXd, reference compound]
EC50 (HCC1569; HCC1569, Table 28, payload): 2.9 nM | Emax (HCC1569; HCC1569, Table 28, payload): 93.4% | PAMPA -Log Pe (PAMPA): 5.89 | EC50 (MDA-MB-453; MDA-MB-453, Table 28, payload): 1.9 nM | Emax (MDA-MB-453; MDA-MB-453, Table 28, payload): 98.7% | recovery (in vitro): 95.2% | Emax (Calu-6; Calu-6, Table 21, Calu-6): 98% | Emax (Calu-6; [2]): 98% | EC50 (Calu-6; [8]): 1.2 nM | Emax (Calu-6; [8]): 98.6% | Emax (Calu-6; [3]): 98.8% | EC50 (A375; [5]): 2.8 nM | EC50 (A375; [9]): 3.2 nM | EC50 (A375; [6]): 2.7 nM | EC50 (A375; A-375, Table 21, A375): 2.8 nM | Emax (A375; A-375, Table 21, A375): 100% | Emax (A375; [7]): 100%

CC[C@@]1(O)C(=O)OCc2c1cc1n(c2=O)Cc2c-1nc1cc(F)c(C)c3c1c2[C@@H](N)CC3 [Exatecan, reference compound]
Emax (HCC1569; HCC1569, Table 28, payload): 94.5% | EC50 (HCC1569; Table 28, payload): 0.5 nM | PAMPA -Log Pe (PAMPA): 5.75 | Emax (MDA-MB-453; MDA-MB-453, Table 28, payload): 99.4% | EC50 (MDA-MB-453; Table 28, payload): 0.5 nM | recovery (in vitro): 56% | EC50 (Calu-6; [2]): 0.3 nM | Emax (Calu-6; [2]): 96.2% | EC50 (Calu-6; [8]): 0.2 nM | Emax (Calu-6; [8]): 96.4% | EC50 (A375; [5]): 0.7 nM | Emax (A375; [5]): 99.9% | EC50 (A375; [9]): 0.9 nM

CCOC(=O)Nc1ccc2c(c1)Oc1cc(NC(=O)OCc3ccc(NC(=O)[C@H](CCCNC(N)=O)NC(=O)[C@@H](NC(=O)CCOCCOCCOCCN4C(=O)CC(SC[C@H](N)C(=O)O)C4=O)C(C)C)cc3)ccc1C21OC(=O)c2ccccc21 (stereo partly shown) [NAcCys-13, reference compound]
cathepsin B mediated rhodamine release rate, rank (cathepsin B): NAcCys-15˜NAcCys-13 (benchmark)>NAcCys-14>NAcCys-17

CCOC(=O)Nc1ccc2c(c1)Oc1cc(NC(=O)OCc3ccc(NC(=O)[C@H](CCCNC(N)=O)NC(=O)[C@@H](NC(=O)[C@H](CNS(N)(=O)=O)NC(=O)CCOCCOCCOCCN4C(=O)CC(SC[C@H](NC(C)=O)C(=O)O)C4=O)C(C)C)cc3)ccc1C21OC(=O)c2ccccc21 (stereo partly shown) [NAcCys-14]
cathepsin B mediated rhodamine release rate, rank (cathepsin B): NAcCys-15˜NAcCys-13 (benchmark)>NAcCys-14>NAcCys-17

CCOC(=O)Nc1ccc2c(c1)Oc1cc(NC(=O)OCc3ccc(NC(=O)[C@H](CCCNC(N)=O)NC(=O)[C@@H](NC(=O)[C@H](CS(=O)(=O)O)NC(=O)CCOCCOCCOCCN4C(=O)CC(SC[C@H](NC(C)=O)C(=O)O)C4=O)C(C)C)cc3)ccc1C21OC(=O)c2ccccc21 (stereo partly shown) [NAcCys-15]
cathepsin B mediated rhodamine release rate, rank (cathepsin B): NAcCys-15˜NAcCys-13 (benchmark)>NAcCys-14>NAcCys-17

CCOC(=O)Nc1ccc2c(c1)Oc1cc(NC(=O)OCc3ccc(NC(=O)[C@H](CCCNC(N)=O)NC(=O)[C@@H](NC(=O)[C@H](CP(=O)(O)O)NC(=O)CCOCCOCCOCCN4C(=O)CC(SC[C@H](NC(C)=O)C(=O)O)C4=O)C(C)C)cc3)ccc1C21OC(=O)c2ccccc21 (stereo partly shown) [NAcCys-17]
cathepsin B mediated rhodamine release rate, rank (cathepsin B): NAcCys-15˜NAcCys-13 (benchmark)>NAcCys-14>NAcCys-17

B1: ADC1-1: antibody: Cofetuzumab; "ADC Compounds used references" (conjugate, chains of the INN, looked up)
VH: QVQLVQSGPEVKKPGASVKVSCKASGYTFTDYAVHWVRQAPGKRLEWIGVISTYNDYTYNNQDFKGRVTMTRDTSASTAYMELSRLRSEDTAVYYCARGNSYFYALDYWGQGTSVTVSS
VL: EIVLTQSPATLSLSPGERATLSCRASESVDSYGKSFMHWYQQKPGQAPRLLIYRASNLESGIPARFSGSGSGTDFTLTISSLEPEDFAVYYCQQSNEDPWTFGGGTKLEIK
modifications: drug conjugate
Emax (Ovcar3 (PTK7 high)): 95.76% | IC50 (Ovcar3 (PTK7 high)): 0.31 nM | Emax (A549 (PTK7 low)): 38.87% | IC50 (A549 (PTK7 low)): > 200 nM | HIC DAR8 RT [1]: 14.56* min
